According to patent US20250115598A1 (Anaxis Pharma Pty Ltd, priority 2021, published 2025):

Experiments:
human MLKL (full length) = human MLKL (full length) (Homo sapiens (Human), UniProt Q8NB16); assay: KINOMEscan binding assay, human MLKL (full length); conditions: hMLKL, Table 25; read-out: MLKL (KD)
Procedure, shortened: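 Assay principle: test compound competes with immobilized bead ligand for kinase; kinase retained, then eluted, is counted by qPCR. Conditions were 1% DMSO final with 11 compound concentrations in 3-fold steps, 30,000 nM top for most. The Hill equation with slope −1 gave Kd.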

endogenous MLKL in U937 = endogenous MLKL in U937 (Homo sapiens (Human), UniProt Q8NB16); assay: Degradation assay: endogenous MLKL in U937 (western blot); conditions: U937, 24 h incubation, read-out: Degradation of endogenous MLKL in U937 (DC50 cell-based assay)
Chain of endogenous MLKL in U937 (Q8NB16 whole entry): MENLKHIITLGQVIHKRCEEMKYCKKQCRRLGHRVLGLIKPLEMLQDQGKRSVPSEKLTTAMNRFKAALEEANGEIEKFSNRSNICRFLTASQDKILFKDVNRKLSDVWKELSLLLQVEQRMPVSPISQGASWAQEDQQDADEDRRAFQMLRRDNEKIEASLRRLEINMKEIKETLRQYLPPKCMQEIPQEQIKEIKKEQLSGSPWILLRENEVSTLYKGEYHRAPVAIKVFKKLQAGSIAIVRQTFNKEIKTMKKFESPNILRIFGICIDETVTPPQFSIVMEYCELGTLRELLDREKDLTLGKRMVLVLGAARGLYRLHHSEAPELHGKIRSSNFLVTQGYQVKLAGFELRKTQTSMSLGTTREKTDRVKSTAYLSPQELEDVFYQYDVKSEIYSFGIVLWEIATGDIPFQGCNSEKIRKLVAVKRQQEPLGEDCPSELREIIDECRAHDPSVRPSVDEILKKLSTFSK
Protocol: Degradation Assay: Screening Compounds Procedure to Evaluate the Activity of Compounds in Degrading Endogenous MLKL in Human and Mouse Cell
The mouse dermal fibroblast (MDF) cell line was seeded the day before the experiment in a 24-well plate at a cell density of […] per well in a volume of 0.5 mL per well and left to attach overnight. The human monocyte cell line (U937) was seeded on the day of the experiment in a 24-well plate at a cell density of […] per well in a volume of 0.5 mL per well.
The compound was diluted in DMSO with a starting concentration of 10 mM and titrated stepwise with a dilution of 1:5. 0.5 μL of the compound dilution was added to the appropriate well to achieve a final concentration of 10; 2; 0.4; 0.08 and 0.016 μM. A DMSO only well was included as control.
The cells were incubated for 24 h in the presence of the compound at 37° C. and 10% CO2.
After the 24 h incubation period, the medium was removed and cells washed with 0.5 mL PBS. The cells were then lysed directly in 60 μL of 1×SDS gel loading buffer.
The cell lysate was heat-denatured at […] for 10 min. 10 μL of lysate per well were run on 18-well 4-15% Criterion TGX stain free gels (BIO-RAD). The proteins were then transferred onto nitrocellulose membrane with a wet transfer protocol in the Criterion Blotter (BIO-RAD).
Membranes were blocked with 5% skim milk in TBST. Primary antibody against MLKL (clone 3H1, MABC604 Merck) was used at 1:2000 dilution in TBST with 1% BSA and left shaking over night at 4° C. After washes with TBST, the membranes were incubated with goat anti-rat IgG HRP-conjugated antibody (Southern Biotech) in 1% skim milk TBST at 1:10000 dilution for 1 h at room temperature. After TBST washes the bands were imaged on the ChemiDoc MP Imaging System (BIO-RAD) with Immobilion Western Chemiluminescent HRP Substrate Forte (Millipore). The loading control GAPDH was probed for with rabbit anti-GAPDH (CST 14C10) at 1:2000 dilution in 1% BSA TBST over night at 4° C. TBST washes were followed by incubation with goat anti-rabbit IgG HRP-conjugated antibody (Southern Biotech) in 1% skim milk TBST at 1:10000 dilution for 1 h at room temperature followed by TBST washes. The signal was detected as described above.
The band intensity was measured in the ImageLab Software (BIO-RAD) and the MLKL values adjusted for loading with GAPDH. The percentage of degradation was calculated by normalizing the compound treated values to the DMSO only control.

[1] = tested on: Immortalised Mouse Dermal Fibroblasts (MDFs); assay: Cellular assay: inhibition of TSI induced necroptosis, CellTitre-Glo viability; conditions: Mus musculus, Fibroblast; MDF, 3 hours TSI cocktail, Table 27; read-out: Inhibition of TSI-induced necroptosis (IC50 cell-based assay) in MDF
Procedure, shortened: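 Necroptosis induced for 3 h with TSI: rhTNF 100 ng/ml, Smac mimetic 500 nM, caspase inhibitor IDN-6556 10 μM. Mouse dermal fibroblasts had received compound (36 μM top, ten three-fold steps) 30 min beforehand. ATP-based viability scaled between untreated and TSI-only wells; IC50 taken as 4-parameter curve inflection.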

endogenous MLKL in MDF = endogenous MLKL in MDF (Mus musculus (Mouse), UniProt Q9D2Y4); assay: Degradation assay: endogenous MLKL in MDF (western blot); conditions: MDF cells, 24 h incubation with compound, MLKL adjusted for loading with GAPDH, normalized to DMSO only control, read-out: Degradation of endogenous MLKL in MDF (DC50 cell-based assay)
Chain of endogenous MLKL in MDF (Q9D2Y4 whole entry): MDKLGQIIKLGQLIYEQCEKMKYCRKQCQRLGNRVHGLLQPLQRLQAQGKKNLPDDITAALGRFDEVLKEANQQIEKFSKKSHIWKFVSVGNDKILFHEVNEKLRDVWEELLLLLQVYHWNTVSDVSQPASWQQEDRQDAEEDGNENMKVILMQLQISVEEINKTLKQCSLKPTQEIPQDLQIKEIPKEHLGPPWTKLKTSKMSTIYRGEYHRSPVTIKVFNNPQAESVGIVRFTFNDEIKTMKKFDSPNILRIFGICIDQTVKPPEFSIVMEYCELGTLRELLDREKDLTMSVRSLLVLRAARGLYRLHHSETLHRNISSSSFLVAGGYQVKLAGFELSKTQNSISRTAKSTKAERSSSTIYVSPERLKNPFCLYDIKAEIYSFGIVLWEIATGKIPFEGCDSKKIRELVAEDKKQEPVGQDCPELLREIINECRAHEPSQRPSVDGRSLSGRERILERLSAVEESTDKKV
Procedure, shortened: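 Western blot band intensity of MLKL, adjusted to GAPDH loading and normalized to DMSO-only wells, gave percent degradation. Compound exposure lasted 24 h at final concentrations of 10–0.016 μM in 1:5 steps, in mouse dermal fibroblasts or human U937 cells.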

Chain of human MLKL (full length) (Q8NB16 whole entry): as the sequence (Q8NB16 whole entry) above

Compound | Kd (human MLKL (full length)) [nM] | DC50 (endogenous MLKL in U937) [nM] | DC50 (endogenous MLKL in MDF) [nM] | IC50 [1] [nM]
(2S,4R)-1-[(2S)-2-(9-{4-amino-3-[4-(difluoromethanesulfonamido)-3-fluorophenyl]-1-methyl-1H-pyrazolo[4,3-c]pyridin-7-yl}non-8-ynamido)-3,3-dimethylbutanoyl]-4-hydroxy-N-{[4-(4-methyl-1,3-thiazol-5-yl)phenyl]methyl}pyrrolidine-2-carboxamide [Compound 1046] | – | < 1000 | – | –
C[C@H](Oc1cc(-c2nn(C)c3c(-c4cnn(C5CCN(C(=O)CCC6CCN(c7cc8c(cc7F)C(=O)N(C7CCC(=O)NC7=O)C8=O)CC6)CC5)c4)cnc(N)c23)ccc1NS(=O)(=O)C(F)F)c1ccc(F)cc1 (stereo partly drawn) [Compound 1087, N-[4-(4-amino-7-{1-[1-(3-{1-[2-(2,6-dioxopiperidin-3-yl)-6-fluoro-1,3-dioxo-2,3-dihydro-1H-isoindol-5-yl]piperidin-4-yl}propanoyl)piperidin-4-yl]-1H-pyrazol-4-yl}-1-methyl-1H-pyrazolo[4,3-c]pyridin-3-yl)-2-[(1S)-1-(4-fluorophenyl)ethoxy]phenyl]-1,1-difluoromethanesulfonamide] | 10 to 1000 | – | < 1000 | < 1000
C[C@H](Oc1cc(-c2nn(C)c3c(-c4cnn(C5CCN(C(=O)[C@H]6C[C@@H](Nc7cccc8c7C(=O)N(C7CCC(=O)NC7=O)C8=O)C6)CC5)c4)cnc(N)c23)ccc1NS(=O)(=O)C(F)F)c1ccc(F)cc1 (stereo partly drawn) [Compound 1055, N-{4-[4-amino-1-methyl-7-(1-{1-[(cis)-3-{[2-(2,6-dioxopiperidin-3-yl)-1,3-dioxo-2,3-dihydro-1H-isoindol-4-yl]amino}cyclobutane-carbonyl]piperidin-4-yl}-1H-pyrazol-4-yl)-1H-pyrazolo[4,3-c]pyridin-3-yl]-2-[(1S)-1-(4-fluorophenyl)ethoxy]phenyl}-1,1-difluoromethanesulfonamide] | 10 to 1000 | – | < 1000 | < 1000
C[C@H](Oc1cc(-c2nn(C)c3c(-c4cnn(C5CCN(C(=O)[C@]6(F)C[C@@H](Nc7cccc8c7C(=O)N(C7CCC(=O)NC7=O)C8=O)C6)CC5)c4)cnc(N)c23)ccc1NS(=O)(=O)C(F)F)c1ccc(F)cc1 (stereo partly drawn) [Compound 1111, N-{4-[4-amino-1-methyl-7-(1-{1-[(cis)-3-{[2-(2,6-dioxopiperidin-3-yl)-1,3-dioxo-2,3-dihydro-1H-isoindol-4-yl]amino}-1-fluorocyclobutane-carbonyl]piperidin-4-yl}-1H-pyrazol-4-yl)-1H-pyrazolo[4,3-c]pyridin-3-yl]-2-[(1S)-1-(4-fluorophenyl)ethoxy]phenyl}-1,1-difluoro-methanesulfonamide] | 10 to 1000 | – | < 1000 | < 1000
CCS(=O)(=O)Nc1ccc(-c2nn(C)c3c(-c4cnn(C5CCN(C(=O)[C@H]6C[C@H](Nc7cccc8c7C(=O)N(C7CCC(=O)NC7=O)C8=O)C6)CC5)c4)cnc(N)c23)cc1F (stereo partly drawn) [Compound 1102, N-{4-[4-amino-1-methyl-7-(1-{1-[(trans)-3-{[2-(2,6-dioxopiperidin-3-yl)-1,3-dioxo-2,3-dihydro-1H-isoindol-4-yl]amino}cyclobutanecarbonyl]piperidin-4-yl}-1H-pyrazol-4-yl)-1H-pyrazolo[4,3-c]pyridin-3-yl]-2-fluorophenyl}ethane-1-sulfonamide] | < 10 | – | < 1000 | < 1000

The next lines start with results.

Kd (human MLKL (full length)) [nM] | DC50 (endogenous MLKL in U937) [nM] | DC50 (endogenous MLKL in MDF) [nM] | Compound | IC50 [1] [nM]
< 10 | 1000 to 10000 | – | Cc1ncsc1-c1ccc(CNC(=O)[C@@H]2C[C@@H](O)CN2C(=O)[C@@H](NC(=O)CCOCCCn2cc(-c3cnc(N)c4c(-c5ccc(NS(=O)(=O)C(F)F)c(O[C@@H](C)c6ccc(F)cc6)c5)nn(C)c34)cn2)C(C)(C)C)cc1 [Compound 1040, (2S,4R)-1-[(2S)-2-{3-[3-(4-{4-amino-3-[4-(difluoromethanesulfonamido)-3-[(1S)-1-(4-fluorophenyl)ethoxy]phenyl]-1-methyl-1H-pyrazolo[4,3-c]pyridin-7-yl}-1H-pyrazol-1-yl)propoxy]propanamido}-3,3-dimethylbutanoyl]-4-hydroxy-N-{[4-(4-methyl-1,3-thiazol-5-yl)phenyl]methyl}pyrrolidine-2-carboxamide] | –
< 10 | < 1000 | – | CN[C@@H](C)C(=O)N[C@H](C(=O)N1C[C@H](NC(=O)CCCCCCn2cc(-c3cnc(N)c4c(-c5ccc(NS(=O)(=O)C(F)F)c(O[C@@H](C)c6ccc(F)cc6)c5)nn(C)c34)cn2)C[C@H]1C(=O)Nc1c(F)cccc1F)C(C)(C)C [Compound 1101, (2S)-4-[7-(4-{4-amino-3-[4-(difluoromethanesulfonamido)-3-[(1S)-1-(4-fluorophenyl)ethoxy]phenyl]-1-methyl-1H-pyrazolo[4,3-c]pyridin-7-yl}-1H-pyrazol-1-yl)heptanamido]-N-(2,6-difluorophenyl)-1-[(2S)-3,3-dimethyl-2-[(2S)-2-(methylamino)propanamido]butanoyl]pyrrolidine-2-carboxamide] | –
10 to 1000 | 1000 to 10000 | – | Cc1ncsc1-c1ccc(CNC(=O)[C@@H]2C[C@@H](O)CN2C(=O)[C@@H](NC(=O)CCCCCCC#Cc2cnc(N)c3c(-c4ccc(NS(=O)(=O)C(F)F)c(F)c4)nn(C)c23)C(C)(C)C)cc1 [Compound 1052, (2S,4R)-1-[(2S)-2-(9-{4-amino-3-[4-(difluoromethanesulfonamido)-3-fluorophenyl]-1-methyl-1H-pyrazolo[4,3-c]pyridin-7-yl}non-8-ynamido)-3,3-dimethylbutanoyl]-4-hydroxy-N-{[4-(4-methyl-1,3-thiazol-5-yl)phenyl]methyl}pyrrolidine-2-carboxamide] | –
< 10 | < 1000 | – | C[C@H](Oc1cc(-c2nn(C)c3c(C#CCCCCCCNC(=O)COc4cccc5c4C(=O)N(C4CCC(=O)NC4=O)C5=O)cnc(N)c23)ccc1NS(=O)(=O)C(F)F)c1ccc(F)cc1 (stereo partly drawn) [Compound 1097, N-(8-{4-amino-3-[4-(difluoromethanesulfonamido)-3-[(1S)-1-(4-fluorophenyl)ethoxy]phenyl]-1-methyl-1H-pyrazolo[4,3-c]pyridin-7-yl}oct-7-yn-1-yl)-2-{[2-(2,6-dioxopiperidin-3-yl)-1,3-dioxo-2,3-dihydro-1H-isoindol-4-yl]oxy}acetamide] | –
< 10 | < 1000 | – | Cc1ncsc1-c1ccc(CNC(=O)[C@@H]2C[C@@H](O)CN2C(=O)[C@@H](NC(=O)COCCOCC#Cc2cnc(N)c3c(-c4ccc(NS(=O)(=O)C(F)F)c(O[C@@H](C)c5ccc(F)cc5)c4)nn(C)c23)C(C)(C)C)cc1 [Compound 1075, (2S,4R)-1-[(2S)-2-(2-{2-[(3-{4-amino-3-[4-(difluoromethanesulfonamido)-3-[(1S)-1-(4-fluorophenyl)ethoxy]phenyl]-1-methyl-1H-pyrazolo[4,3-c]pyridin-7-yl}prop-2-yn-1-yl)oxy]ethoxy}acetamido)-3,3-dimethylbutanoyl]-4-hydroxy-N-{[4-(4-methyl-1,3-thiazol-5-yl)phenyl]methyl}pyrrolidine-2-carboxamide] | –
